Test [1] concerns Staphylococcus aureus S13E. The format is cell-based. The procedure: (§1) The MIC's were determined using a standard broth micro-dilution assay.
For test [2], the system named is Staphylococcus aureus SA1199B. The format is cell-based. The protocol:
as §1

Test [3] has as its system Entercoccus faecium 180-1. The experiment in a line: broth micro-dilution MIC. It counts as cell-based. The procedure:
as §1

The subject of another test is Entercoccus faecium 276. The experiment in a line: broth micro-dilution MIC. The format is cell-based. The protocol:
as §1

Test [4] relates to Staphylococcus aureus 446. The experiment in a line: broth micro-dilution MIC. The format is cell-based. The protocol: as §1
On the technique in general: In broth dilution the organism is exposed to a series of concentrations in liquid medium.

For test [5], the system named is Staphylococcus aureus 447. Briefly: broth micro-dilution MIC. It counts as cell-based. The protocol:
as §1

Test [6] has as its system Staphylococcus aureus 491. Briefly: broth micro-dilution MIC. It counts as cell-based. The procedure:
as §1

Test [7] has as its system Staphylococcus aureus SA1199A. Briefly: broth micro-dilution MIC. It counts as cell-based. The procedure:
as §1

In test [8] the test system is Staphylococcus aureus X778. Briefly: broth micro-dilution MIC. The format is cell-based. The protocol:
as §1

Test [9] relates to Streptococcus pyogenes C203. The experiment in a line: broth micro-dilution MIC. It counts as cell-based. The procedure: as §1
The test system of a further test is Entercoccus faecium 180. The experiment in a line: broth micro-dilution MIC. It counts as cell-based. To be noted: Entercoccus faecium 180. The procedure: (§2) The formula I compounds have in vitro and in vivo activity against Gram-positive pathogenic bacteria. The MIC's were determined using a standard broth micro-dilution assay.
For the next test, the system named is Entercoccus faecium 2041. The experiment in a line: broth micro-dilution MIC. To be noted: Entercoccus faecium 2041. The format is cell-based. The protocol: as §2
In test [10] the test system is Enterococcus gallinarum 245. The experiment in a line: broth micro-dilution MIC. The format is cell-based. To be noted: Enterococcus gallinarum 245. The protocol: as §2
Test [11] concerns Staphylococcus epidermidis 270. Briefly: broth micro-dilution MIC. The format is cell-based. The protocol:
as §2

Test [12] has as its system Staphylococcus haemolyticus 105. The experiment in a line: broth micro-dilution MIC. The format is cell-based. The procedure:
as §2

For test [13], the system named is Staphylococcus haemolyticus 415. Briefly: broth micro-dilution MIC. It counts as cell-based. The procedure: as §2
In test [14] the test system is Streptococcus pneumoniae P1. Briefly: broth micro-dilution MIC. It counts as cell-based. The protocol: as §2
The test system of test [15] is vancomycin-resistant enterococci. The experiment in a line: broth micro-dilution, mean geometric MIC. The format is cell-based, Enterococcus faecium and Enterococcus faecalis. To be noted: enterococci, 24-hour incubation.
Test [16] concerns vancomycin-susceptible enterococci. The experiment in a line: broth micro-dilution, mean geometric MIC. The format is cell-based, Enterococcus faecium and Enterococcus faecalis. To be noted: enterococci, 24-hour incubation.
In test [17] the test system is Staphylococcus aureus SA1199. Briefly: broth micro-dilution MIC. It counts as cell-based. The protocol:
as §1

For test [18], the system named is Staphylococcus aureus X400. The experiment in a line: broth micro-dilution MIC. The format is cell-based. The protocol:
as §1

These results are taken from US5840684A, “Glycopeptide antibiotic derivatives” (Eli Lilly and Company, priority 1995, dated 1998).

Converted amounts (≈) assume the structure as drawn.

As usually defined, the MIC is the smallest concentration in the dilution series that meets the test's criterion for growth inhibition. For `CNC(CC(C)C)C(=O)NC1C(=O)NC(CC(N)=O)C(=O)NC2C(=O)NC3C(=O)NC(C(=O)NC(C(=O)O)c4cc(O)cc(O)c4-c4cc3ccc4O)C(OC3CC(C)(N)C(O)C(C)O3)c3ccc(c(Cl)c3)Oc3cc2cc(c3OC2OC(CO)C(O)C(O)C2OC2CC(C)(NCc3ccc4c(c3)CCO4)C(O)C(C)O2)Oc2ccc(cc2Cl)C1O` (stereo not shown) [Compound 82], the minimum inhibitory concentration (MIC) in test [1] is not above 0.06 µg/mL; in test [2], 1 µg/mL (≈ 0.58 µM); in test [3], 0.125 µg/mL (≈ 0.0725 µM); against Entercoccus faecium 276 it was not above 0.06 µg/mL; in [4], 2 µg/mL (≈ 1.16 µM); in [5] it was 4 µg/mL (≈ 2.32 µM). In addition, the MIC was 1 µg/mL (≈ 0.58 µM) in test [6]; 0.5 µg/mL (≈ 0.29 µM) in test [7]; 0.5 µg/mL (≈ 0.29 µM) in [8]; not above 0.06 µg/mL in [9]; 2 µg/mL (≈ 1.16 µM) in the test on Entercoccus faecium 180; 0.5 µg/mL (≈ 0.29 µM) in the test with Entercoccus faecium 2041. Besides, the MIC is 0.125 µg/mL (≈ 0.0725 µM) in [10]; 4 µg/mL (≈ 2.32 µM) in [11]; 8 µg/mL (≈ 4.64 µM) in [12]; 8 µg/mL (≈ 4.64 µM) in test [13]; not above 0.06 µg/mL in test [14]. For the same compound, the “mean geometric MIC, Vancomycin Resistant Strains” value in test [15] amounted to 22 µg/mL. In addition, the “mean geometric MIC, Vancomycin Sensitive Strains” value in [16] worked out at 0.50 µg/mL.
For the compound `CNC(CC(C)C)C(=O)NC1C(=O)NC(CC(N)=O)C(=O)NC2C(=O)NC3C(=O)NC(C(=O)NC(C(=O)O)c4cc(O)cc(O)c4-c4cc3ccc4O)C(OC3CC(C)(N)C(O)C(C)O3)c3ccc(c(Cl)c3)Oc3cc2cc(c3OC2OC(CO)C(O)C(O)C2OC2CC(C)(NCc3cc(C)cc(C)c3)C(O)C(C)O2)Oc2ccc(cc2Cl)C1O` (stereo not shown) [Compound 89], the MIC in test [2] is 1 µg/mL (≈ 0.585 µM); in test [3] it was not above 0.06 µg/mL; in the test with Entercoccus faecium 276, not above 0.06 µg/mL; in test [4], 0.5 µg/mL (≈ 0.292 µM); in test [5], 1 µg/mL (≈ 0.585 µM); in test [6] it was 1 µg/mL (≈ 0.585 µM). The MIC is not above 0.06 µg/mL in test [7]; 0.5 µg/mL (≈ 0.292 µM) in [17]; not above 0.06 µg/mL in [9]; 0.125 µg/mL (≈ 0.0731 µM) against Entercoccus faecium 180; not above 0.06 µg/mL in the test with Entercoccus faecium 2041; not above 0.06 µg/mL in test [10]. Moreover, the minimal inhibitory concentration (MIC) in test [11] is 1 µg/mL (≈ 0.585 µM); in test [12], 1 µg/mL (≈ 0.585 µM); in test [13], 2 µg/mL (≈ 1.17 µM); in test [14], not above 0.06 µg/mL. For the same compound, the “mean geometric MIC, Vancomycin Resistant Strains” value in [15] came to 11 µg/mL. Further, the “mean geometric MIC, Vancomycin Sensitive Strains” value in test [16] is 0.44 µg/mL.
`CNC(CC(C)C)C(=O)NC1C(=O)NC(CC(N)=O)C(=O)NC2C(=O)NC3C(=O)NC(C(=O)NC(C(=O)O)c4cc(O)cc(O)c4-c4cc3ccc4O)C(OC3CC(C)(N)C(O)C(C)O3)c3ccc(c(Cl)c3)Oc3cc2cc(c3OC2OC(CO)C(O)C(O)C2OC2CC(C)(NCc3ccc([S+]([O-])c4ccccc4)cc3)C(O)C(C)O2)Oc2ccc(cc2Cl)C1O` (stereo not shown) [Compound 159]: the minimum inhibitory concentration (MIC) is 1 µg/mL (≈ 0.553 µM) in test [1]; not above 0.06 µg/mL in test [2]; not above 0.06 µg/mL in test [3]; 0.5 µg/mL (≈ 0.277 µM) in test [4]; 4 µg/mL (≈ 2.21 µM) in test [5]; 2 µg/mL (≈ 1.11 µM) in test [6]. The minimal inhibitory concentration (MIC) in test [7] is not above 0.06 µg/mL; in test [18], 4 µg/mL (≈ 2.21 µM); in test [8] it was 2 µg/mL (≈ 1.11 µM); in test [9], not above 0.06 µg/mL; with Entercoccus faecium 180, 2 µg/mL (≈ 1.11 µM); in test [10] it was 8 µg/mL (≈ 4.43 µM). The MIC in [11] is 0.5 µg/mL (≈ 0.277 µM); in test [12], 16 µg/mL (≈ 8.86 µM); in [13] it was 8 µg/mL (≈ 4.43 µM); in [14] it was not above 0.06 µg/mL. In addition, in test [15], the “mean geometric MIC, Vancomycin Resistant Strains” value is 27 µg/mL. The “mean geometric MIC, Vancomycin Sensitive Strains” value in [16] is 0.50 µg/mL.
